The source of these data is ChEMBL document CHEMBL2163341, “Discovery of MK-7725, A Potent, Selective Bombesin Receptor Subtype-3 Agonist for the Treatment of Obesity” (ACS Med Chem Lett, 2012).

The bioavailability is the share of a dose that reaches the circulation, judged against a reference dose that is usually intravenous. What is called clearance is a measure of how efficiently the substance is removed, as volume per time. By EC50 is commonly meant the midpoint of the concentration-response curve. In general, half-life refers to the time in which the quantity being followed falls by half.

Data set [1] is described as follows: Oral bioavailability in rhesus monkey at 1 mg/kg. As to conditions: in vivo. It is filed as ADME, organism-based, Macaca mulatta.
For data set [2], the system named is Mus musculus. As to the kind of experiment: Increase of core body temperature in DIO mouse assessed as AUC (1 to 6 hrs) of body temperature changes at 3 mg/kg by fasted temperature PD assay. Format: functional.
Data set [3] deals with T1, Nuclear receptor subfamily 1 group I member 2 (Homo sapiens, UniProt O75469).
T1 sequence (O75469 whole entry): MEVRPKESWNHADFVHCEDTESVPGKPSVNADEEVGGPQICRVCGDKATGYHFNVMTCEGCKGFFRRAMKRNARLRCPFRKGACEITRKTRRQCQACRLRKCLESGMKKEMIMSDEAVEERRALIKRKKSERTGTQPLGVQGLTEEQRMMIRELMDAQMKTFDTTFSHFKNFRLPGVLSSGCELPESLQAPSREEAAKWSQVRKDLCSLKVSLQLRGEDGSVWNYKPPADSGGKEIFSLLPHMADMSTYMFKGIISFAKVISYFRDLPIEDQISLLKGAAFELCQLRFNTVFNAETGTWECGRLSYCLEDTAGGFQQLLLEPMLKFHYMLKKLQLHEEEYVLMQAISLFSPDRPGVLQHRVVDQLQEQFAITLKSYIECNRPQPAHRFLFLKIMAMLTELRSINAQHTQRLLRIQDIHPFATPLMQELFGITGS
As to the kind of experiment: Activation of PXR at 10 uM.

The test system of another data set is Rhesus monkey. As to the kind of experiment: Dose normalized AUC in rhesus monkey at 1 mg/kg, po. Conditions: in vivo. Format: ADME, organism-based, Macaca mulatta. Details: dose 1 mg/kg, route oral.
Data set [4] concerns the target T2, Bombesin receptor subtype-3 (Mus musculus) (UniProt O54798).
T2 sequence (whole entry): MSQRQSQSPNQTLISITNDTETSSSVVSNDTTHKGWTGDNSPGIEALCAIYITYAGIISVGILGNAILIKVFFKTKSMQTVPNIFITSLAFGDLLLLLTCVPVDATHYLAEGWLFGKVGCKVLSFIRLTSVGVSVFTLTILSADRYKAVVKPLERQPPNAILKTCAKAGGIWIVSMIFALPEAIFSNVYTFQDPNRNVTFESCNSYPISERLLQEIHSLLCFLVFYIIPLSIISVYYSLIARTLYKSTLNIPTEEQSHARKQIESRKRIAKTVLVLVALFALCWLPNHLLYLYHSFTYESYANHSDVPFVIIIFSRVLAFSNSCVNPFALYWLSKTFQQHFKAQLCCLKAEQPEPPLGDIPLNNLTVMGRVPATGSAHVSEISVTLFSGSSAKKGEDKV
As to the kind of experiment: Agonist activity at mouse BRS-3 expressed in HEK293AEQ cells assessed as bioluminescence for 10 mins by aequorin bioluminescence assay relative to dY-peptide. Format: functional, cell-based.

Data set [5] concerns Rattus norvegicus. As to the kind of experiment: Dose normalized AUC in Sprague-Dawley rat at 1 mg/kg, po. It is filed as ADME, organism-based. Details: dose 1 mg/kg, route oral. Conditions: in vivo.
In data set [6] the test system is Rattus norvegicus. As to the kind of experiment: Toxicity in DIO Sprague-Dawley rat assessed as tachyphylaxis at 15 to 50 mg/kg, po administered bid for 12 days. Format: organism-based. Also on record: dose 15-50 mg/kg, route oral. As to conditions: in vivo, 288 h.
In data set [7] the test system is Rattus norvegicus. As to the kind of experiment: Antiobesity activity in DIO Sprague-Dawley rat assessed as increase in metabolic rate at 15 to 50 mg/kg, po administered bid for 12 days. Format: functional, organism-based.
For data set [8], the system named is Rattus norvegicus. As to the kind of experiment: Antiobesity activity in DIO Sprague-Dawley rat assessed as reduction of body weight at 15 mg/kg, po administered bid for 12 days. Details: scale not given: the % may be the effect or the level left. Format: functional.
Data set [9] has as its system Canis familiaris. As to the kind of experiment: Dose normalized AUC in dog at 1 mg/kg, po. It is filed as ADME, organism-based, Canis lupus familiaris. As to conditions: in vivo. Also on record: dose 1 mg/kg, route oral.
Data set [10] concerns Mus musculus. As to the kind of experiment: Antiobesity activity in po dosed wild type DIO C57 mouse assessed as reduction of body weight. It is filed as functional, organism-based.
Data set [11] can be described thus: Plasma clearance in rhesus monkey at 0.5 mg/kg, iv. It is filed as ADME, organism-based, Macaca mulatta. Also on record: dose 0.5 mg/kg, route intravenous.
Data set [12] can be described thus: Plasma clearance in dog at 0.5 mg/kg, iv. Details: dose 0.5 mg/kg, route intravenous. It is filed as ADME, organism-based, Canis lupus familiaris.
Data set [13] deals with Mus musculus. As to the kind of experiment: Antiobesity activity in BRS-3 knock out DIO C57BL/6 mouse assessed as reduction of food intake at 100 mg/kg, po after 18 hrs. Details: dose 100 mg/kg. It is filed as functional, organism-based.
Data set [14] addresses T1, Nuclear receptor subfamily 1 group I member 2. As to the kind of experiment: Activation of PXR.
In data set [15] the test system is Canis familiaris. As to the kind of experiment: Antiobesity activity in obese Beagle dog assessed as reduction of body weight at 5 to 15 mg/kg, po administered for 7 days relative to control. Format: functional, Canis lupus familiaris. Also on record: scale not given: the % may be the effect or the level left. Conditions: dose mg/kg 5-15.
Data set [16] in a line: Half life in dog at 0.5 mg/kg, iv. It is filed as ADME, organism-based, Canis lupus familiaris. Details: dose 0.5 mg/kg, route intravenous. As to conditions: in vivo.
Data set [17] has as its system Rattus norvegicus. As to the kind of experiment: Antiobesity activity in DIO Sprague-Dawley rat assessed as reduction of body weight at 50 mg/kg, po administered bid for 12 days. Details: scale not given: the % may be the effect or the level left. Format: functional.
Data set [18] can be described thus: Oral bioavailability in dog at 1 mg/kg. Format: ADME, organism-based, Canis lupus familiaris. As to conditions: in vivo.
Data set [19] relates to Mus musculus. As to the kind of experiment: Antiobesity activity in po dosed wild type DIO C57 mouse assessed as reduction of food intake. It is filed as functional, organism-based.
The nature of data set [20]: Half life in rhesus monkey at 0.5 mg/kg, iv. It is filed as ADME, organism-based, Macaca mulatta. Conditions: in vivo. Details: dose 0.5 mg/kg, route intravenous.

The source made the active and inactive calls. The rule behind the calls is not given here.

Take `CC(C)(O)c1nc(-c2cccc3c2N(S(=O)(=O)c2ccc(OC(F)(F)F)cc2)Cc2ccc(C(F)(F)F)nc2N3)no1`: the bioavailability is 58% in data set [1] and 100% in [18]. Besides, the Activity with Mus musculus [2] is 5.6 degreeC.hr; in data set [3], 17%; in data set [4], 106%; in the data set on Rattus norvegicus [6] it was “Non-toxic”; in the data set with Rattus norvegicus [8], 4%; in the data set with Mus musculus [10], “Dose-dependent effect”. In addition, the Activity in the data set on Canis familiaris [15] was 4%; in the data set on Rattus norvegicus [17], 3.2%; with Mus musculus [19] it was “Dose-dependent effect”. For the same compound, the AUC/dose is 12 µM·kg·h/mg in the data set with Rhesus monkey, 1.6 µM·kg·h/mg with Rattus norvegicus [5] and 10 µM·kg·h/mg in the data set with Canis familiaris [9]. In addition, in the data set on Rattus norvegicus [7], the result was Active. Besides, the clearance is 1.3 mL/min/kg in data set [11] and 2.9 mL/min/kg in data set [12]. Also, the outcome in the data set on Mus musculus [13] was inactive. Moreover, the EC50 in [14] is over 30 µM. The results for the half-life in [16] and in [20] were 18 h and 33 h, respectively.
